This is an account of results in patent publication US6803484B2, “Sulfonamide derivatives” (Eli Lilly and Company, priority 2000, dated 2004).

The data set is described as follows: Determination of plasma exposure of test compounds in rats (LC/MS of plasma after oral dosing). As to conditions: for AUC / Cmax / Tmax: male, F-344, rat, rats, oral administration of a 30 mg/kg dose; for AUC: n = 3, read-out: AUC (area under the curve); for Cmax: n = 3, read-out: Cmax (maximum concentration of test compound); for Tmax: n = 3, read-out: tmax (time at which maximum concentration resulted); for concentration at 0.5 h / concentration at 1 h / concentration at 2 h / concentration at 6 h: rat, male F-344 rats, 30 mg/kg oral by gavage, suspension, n = 3. The data set is classed as in vivo, rat (male F-344). On the procedure: General Procedure for Determination of Plasma Exposure of Test Compounds in Rats
Each compound was administered as a suspension in a vehicle consisting of 5% ethanol, 95% of a mixture of 0.5% each Polysorbate 80/sodium carboxymethylcellulose in water. Three male F-344 rats were dosed orally at 30 mg/kg by gavage and blood collected by orbital venapuncture under isoflurane anesthesia at 0.5, 1, and 2 hours after dosing into sodium heparinized containers. The final 6 hour timepoint was collected by cardiac puncture into sodium heparinized containers. Plasma was collected after brief centrifugation and frozen at −70° C. until assay. Plasma samples were assayed by LC/MS using standards prepared by spiking plasma with the compound of interest.

In general, AUC refers to concentration integrated over time. For the compound `CC(CNS(=O)(=O)C(C)C)c1ccc(NC(=O)c2ccc(F)cc2F)cc1` (centres unmarked) [Compound A, N-[4-(1-methyl-2-{[(methylethyl)sulfonyl]amino}ethyl)phenyl](2,4-difluorophenyl)carboxamide], the AUC is 1440 ± 227 ng·h/mL, the Cmax was 473 ng/mL, the Tmax turned out to be 30 min and the concentration at 0.5 h amounted to 473 ± 100 ng/mL. Moreover, the concentration at 1 h is 333 ± 53 ng/mL, the concentration at 2 h amounted to 329 ± 62 ng/mL and the concentration at 6 h was determined as 67 ± 17 ng/mL.
In the case of `CC(C)S(=O)(=O)NC[C@H](C)c1ccc(NC(=O)c2cc(F)cc(F)c2)cc1` [Compound B, N-[4-((1R)-1-methyl-2-{[(methylethyl)sulfonyl]amino}ethyl)phenyl](3,5-difluorophenyl)carboxamide], the AUC came out at 5596 ± 14 ng·h/mL, the Cmax was 1490 ng/mL, the Tmax came out at 30 min and the concentration at 0.5 h came out at 1491 ± 12 ng/mL. The compound further had a concentration at 1 h of 1170 ± 134 ng/mL, a concentration at 2 h of 1040 ± 62 ng/mL and a concentration at 6 h of 693 ± 136 ng/mL.
